Patent US5449612A, “Process for identifying candida by means of chromogenic substances” (Serbio, priority 1990, dated 1995)

Assays:
β-D-glucosidase = conditions: Casal et al. 1983; Polachek et al. 1987; cited from earlier work
[1] = tested on: isolated strains of Candida albicans, Candida guillermondii, Candida intermedia, Candida parapsilosis, Candida pseudotropicalis, Candida stellatoidea, Candida …; conditions: YEAST-IDENT, liquid medium, 4 h at 37° C.; cited from earlier work
C. parapsilosis [2] = experiment: Diagnosis from isolated colonies on gelose 2/5; format: cell-based, Candida parapsilosis; conditions: Table VI; further: key: -: none; +: weak; ++: moderate; +++: intense; ++++: very intense
T. glabrata [3] = experiment: Diagnosis from non-isolated colonies on gelose 2/5; format: cell-based, Torulopsis glabrata; further: key: -: none; +: weak; ++: moderate; +++: intense; ++++: very intense
C. guillermondii [4] = experiment: Diagnosis from non-isolated colonies on gelose 2/5; format: cell-based, Candida guillermondii; further: key: -: none; +: weak; ++: moderate; +++: intense; ++++: very intense
C. albicans [5] = experiment: Diagnosis from non-isolated colonies on gelose 2/5; format: cell-based, Candida albicans
C. tropicalis [6] = experiment: Diagnosis from isolated colonies on gelose 2/5; format: cell-based, Candida tropicalis; conditions: isolated colonies
T. glabrata [7] = experiment: Diagnosis from isolated colonies on gelose 2/5; format: cell-based, Torulopsis glabrata; conditions: isolated colonies; further: key: -: none; +: weak; ++: moderate; +++: intense; ++++: very intense
C. guillermondii [8] = experiment: Diagnosis from isolated colonies on gelose 2/5; format: cell-based, Candida guillermondii; conditions: Table VI; further: key: -: none; +: weak; ++: moderate; +++: intense; ++++: very intense
C. zeylanoides [9] = experiment: Diagnosis from non-isolated colonies on gelose 5; format: cell-based, Candida zeylanoides; conditions: Table IX, 1 strain, gelose 5, cycloheximide; further: key: -: none; +: weak; ++: moderate; +++: intense; ++++: very intense
C. cerevisiae = experiment: Diagnosis from non-isolated colonies on gelose 5; format: cell-based
Experimental: (§1) According to the afore-mentioned best mode of carrying out the invention, a culture medium containing the following ingredients is prepared; it is called gelose 5 below and is buffered to pH 6.0.
(§2) A mixture of several non-isolated strains of C. albicans, C. tropicalis, C. krusei, C. guillermondii, C. pseudotropicalis, C. parapsilosis, C. zeylanoides, C. ciferii, C. cerevisiae, Torulopsis glabrata and Trichosporon cutaneum was inoculated and incubated on the culture media according to Example 5, containing the substrate N-Ac-β-D-galactosaminide-PNP of the prior art or the substrate H-Pro-pNA.AcOH according to the invention.

C. ciferii = experiment: Diagnosis from non-isolated colonies on gelose 5; format: cell-based; conditions: Table IX, 1 strain, gelose 5, cycloheximide; further: key: -: none; +: weak; ++: moderate; +++: intense; ++++: very intense
C. krusei [10] = experiment: Diagnosis from non-isolated colonies on gelose 2/5; format: cell-based, Candida krusei
Experimental: (§3) According to the afore-mentioned best mode of carrying out the invention, a culture medium containing the following ingredients is prepared; it is called gelose 2 below and is buffered to pH 6.0.
as §1
A mixture of several non-isolated strains of C. albicans, C. tropicalis, C. krusei, C. guillermondii, C. pseudotropicalis, C. parapsilosis, Cryptococcus neoformaas, Torulopsis glabrata and Trichosporon cutaneum was inoculated and incubated on the culture media according to Examples 1 to 5, containing the substrate N-Ac-β-D-galactosaminide-PNP of the prior art or the substrate H-Pro-pNA.AcOH according to the invention. The results, which were obtained particularly with geloses 2 and 5, are collated in Table VIII below, where the TTC column relates to results of tests undertaken separately on a standard gelose medium containing TTC.
as §2

Tr. cutaneum [11] = experiment: Diagnosis from non-isolated colonies on gelose 2/5; format: cell-based, Trichosporon cutaneum
C. albicans [12] = experiment: Diagnosis from isolated colonies on gelose 2/5; format: cell-based, Candida albicans; conditions: isolated colonies; further: key: -: none; +: weak; ++: moderate; +++: intense; ++++: very intense
C. krusei [13] = experiment: Diagnosis from isolated colonies on gelose 2/5; format: cell-based, Candida krusei
Experimental: as §3, §1
Several isolated strains of C. albicans, C. tropicalis, C. krusei, C. guillermondii, C. pseudotropicalis, C. parapsilosis, C. zeylanoides, T. glabrata and Trichosporon cutaneum were inoculated and incubated on the media of Examples 1 to 5. […] Part of the results obtained has been collated in Table VI below, where the TTC column relates to results of tests undertaken separately on a standard gelose medium containing TTC.
Several isolated strains of C. albicans, C. tropicalis, C. krusei, C. guillermondii and T. glabrata were inoculated and incubated on the media of Example 2 [containing either the substrate N-Ac-β-D-galactosaminide-PNP of the prior art, or the substrates H-L-PropNA.AcOH (specific for C. albicans), EM-L-Phg-L-ArgpNA.AcOH (specific for T. glabrata) and H-Gly-L-Pro-L-Arg-pNA.2AcOH (specific for C. krusei)]and of Example 5 (containing the substrate H-L-Pro-pNA.AcOH).

Candida albicans = experiment: Tests on substrates against Candida albicans, colour reading on buffered gelose; format: cell-based; parameters: key to Specificity: interference with C. albicans: (a): interference with C. albicans (++++); (b): interference with C. krusei (++); (c): interference with C. tropicalis (++)
Cr. neoformans = experiment: Diagnosis from non-isolated colonies on gelose 2/5; format: cell-based, Cryptococcus neoformans; conditions: Table VIII; further: key: -: none; +: weak; ++: moderate; +++: intense; ++++: very intense
C. zeylanoides [14] = experiment: Diagnosis from isolated colonies on gelose 2/5; format: cell-based, Candida zeylanoides; conditions: Table VI; further: key: -: none; +: weak; ++: moderate; +++: intense; ++++: very intense
C. tropicalis [15] = experiment: Diagnosis from non-isolated colonies on gelose 2/5; format: cell-based, Candida tropicalis; further: key: -: none; +: weak; ++: moderate; +++: intense; ++++: very intense
C. pseudotropicalis [16] = experiment: Diagnosis from isolated colonies on gelose 2/5; format: cell-based, Candida pseudotropicalis; conditions: Table VI; further: key: -: none; +: weak; ++: moderate; +++: intense; ++++: very intense
C. parapsilosis [17] = experiment: Diagnosis from non-isolated colonies on gelose 2/5; format: cell-based, Candida parapsilosis; further: key: -: none; +: weak; ++: moderate; +++: intense; ++++: very intense
Candida guillermondii = experiment: Tests on substrates against Candida guillermondii; parameters: Reading at 24 h: key to the marks not given beside the values; conditions: Table V
C. pseudotropicalis [18] = experiment: Diagnosis from non-isolated colonies on gelose 2/5; format: cell-based, Candida pseudotropicalis; further: key: -: none; +: weak; ++: moderate; +++: intense; ++++: very intense
Tr. cutaneum [19] = experiment: Diagnosis from isolated colonies on gelose 2/5; format: cell-based, Trichosporon cutaneum; conditions: Table VI; further: key: -: none; +: weak; ++: moderate; +++: intense; ++++: very intense
[20] = gelose 5 (maltose, cycloheximide)
[21] = Table VIII, gelose 5 (maltose, cycloheximide)
[22] = Table IX, 1 strain, gelose 5, cycloheximide
[23] = Table VI, gelose 5 (maltose, cycloheximide)
[24] = Table VII, gelose 5 with cycloheximide
[25] = Table IX, 2 strains, gelose 5, cycloheximide
[26] = Table VIII, 2 strains, gelose 2

In the case of OC[C@H]1O[C@@H](Oc2ccc3cc(Br)ccc3c2)[C@H](O)[C@@H](O)[C@@H]1O [(6-bromo-β-naphthyl)-β-D-glucopyranoside], the “reaction with isolated strains” value (β-D-glucosidase) is given as “positive reaction”.

For O=C(Nc1ccc2ccccc2c1)[C@@H]1CCCN1 [H-L-Pro-NA], the “reaction with isolated strains” value [1] is given as “positive reaction”.

For CC(=O)O.O=C(Nc1ccc([N+](=O)[O-])cc1)[C@@H]1CCCN1 [H-L-Pro-pNA.AcOH], the “Reading at t = 24 h” value (C. parapsilosis [2]; 5 strains, gelose 2) was “+++”, the “Reading at t = 24 h” value (C. parapsilosis [2]; [20]) was “-” and the “Reading at t = 24 h” value (T. glabrata [3]; Table IX, 8 strains, gelose 5, cycloheximide) was “-”. For the same compound, the “Reading at t = 24 h” value (T. glabrata [3]; Table VIII, 8 strains, gelose 2) was “-”, the “Reading at t = 24 h” value (T. glabrata [3]; [21]) was “-” and the “Reading at t = 24 h” value (C. guillermondii [4]; [22]) was “-”. For the same compound, the “Reading at t = 24 h” value (C. guillermondii [4]; Table VIII, 1 strain, gelose 2) was “+++”, the “Reading at t = 24 h” value (C. guillermondii [4]; [21]) was “-” and the “Reading at t = 24 h” value (C. albicans [5]; Table IX, 89 strains, gelose 5, cycloheximide) was “++++”. The “Reading at t = 24 h” value (C. albicans [5]; Table VIII, 13 strains, gelose 2) was “++++”, the “Reading at t = 24 h” value (C. albicans [5]; [21]) was “+++” and the “Reading at t = 24 h” value (C. tropicalis [6]; Table VI, 4 strains, gelose 2) was “-”. The “Reading at t = 24 h” value (C. tropicalis [6]; [23]) was “-”, the “Reading at t = 24 h” value (C. tropicalis [6]; Table VII, 9 strains, gelose 2) was “-” and the “Reading at t = 24 h” value (C. tropicalis [6]; [24]) was “-”. The “Reading at t = 24 h” value (T. glabrata [7]; Table VI, 4 strains, gelose 2) was “-”, the “Reading at t = 24 h” value (T. glabrata [7]; [23]) was “-” and the “Reading at t = 24 h” value (T. glabrata [7]; Table VII, 9 strains, gelose 2) was “-”. The “Reading at t = 24 h” value (T. glabrata [7]; [24]) was “-”, the “Reading at t = 24 h” value (C. guillermondii [8]; 2 strains, gelose 2) was “+++” and the “Reading at t = 24 h” value (C. guillermondii [8]; [20]) was “-”. For the same compound, the “Reading at t = 24 h” value (C. zeylanoides [9]) was “-”, the “Reading at t = 24 h” value (C. cerevisiae) was “-” and the “Reading at t = 24 h” value (C. ciferii) was “-”. The “Reading at t = 24 h” value (C. krusei [10]) was “-”, the “Reading at t = 24 h” value (Tr. cutaneum [11]; [25]) was “-” and the “Reading at t = 24 h” value (Tr. cutaneum [11]; [26]) was “++”. For the same compound, the “Reading at t = 24 h” value (Tr. cutaneum [11]; [21]) was “-”, the “Reading at t = 24 h” value (C. albicans [12]; Table VI, 10 strains, gelose 2) was “++++” and the “Reading at t = 24 h” value (C. albicans [12]; [23]) was “++++”. The “Reading at t = 24 h” value (C. albicans [12]; Table VII, 6 strains, gelose 2) was “++++”, the “Reading at t = 24 h” value (C. albicans [12]; [24]) was “++++” and the “Reading at t = 24 h” value (C. krusei [13]) was “-”. The “Specificity: nonspecific for the strains of Candida albicans” value (Candida albicans; Table I) was “(a)”, the “Reading at 24 h” value (Candida albicans; Table I, medium pH 6.0, YNB, glucose, agar, gentamycin, coloration or fluorescence) was “++++” and the “Specificity: interference with C. albicans” value (Candida albicans; Table V) was “(a)”. The “Reading at t = 24 h” value (Cr. neoformans; 1 strain, gelose 2) was “-”, the “Reading at t = 24 h” value (Cr. neoformans; [20]) was “-” and the “Reading at t = 24 h” value (C. zeylanoides [14]; 1 strain, gelose 2) was “++”. The “Reading at t = 24 h” value (C. zeylanoides [14]; [20]) was “-”, the “Reading at t = 24 h” value (C. tropicalis [15]; [22]) was “-” and the “Reading at t = 24 h” value (C. tropicalis [15]; Table VIII, 1 strain, gelose 2) was “-”. The “Reading at t = 24 h” value (C. tropicalis [15]; [21]) was “-”, the “Reading at t = 24 h” value (C. pseudotropicalis [16]; 2 strains, gelose 2) was “-” and the “Reading at t = 24 h” value (C. pseudotropicalis [16]; [20]) was “-”. For the same compound, the “Reading at t = 24 h” value (C. parapsilosis [17]; [22]) was “-”, the “Reading at t = 24 h” value (C. parapsilosis [17]; [26]) was “+++” and the “Reading at t = 24 h” value (C. parapsilosis [17]; [21]) was “-”. For the same compound, the “Reading at 24 h” value (Candida guillermondii) was “++++”, the “Reading at t = 24 h” value (C. pseudotropicalis [18]; [25]) was “-” and the “Reading at t = 24 h” value (C. pseudotropicalis [18]; Table VIII, 1 strain, gelose 2) was “-”. The “Reading at t = 24 h” value (C. pseudotropicalis [18]; [21]) was “-”, the “Reading at t = 24 h” value (Tr. cutaneum [19]; 1 strain, gelose 2) was “+” and the “Reading at t = 24 h” value (Tr. cutaneum [19]; [20]) was “-”.
